Experimental data as given in US10617664B2, “Brain derived PPARα ligands” (Rush University Medical Center, priority 2015, dated 2020).

system: PPRE-driven luciferase activity; test: PPRE-luciferase assay in Ppara-null hippocampal neurons transduced with Ppara constructs; assay type: cell-based, mouse; details: lenti-Y314D/Y464D-Ppara
Method: Astrocytes plated at 60-70% confluence were transfected with tk-PPREx3-Luc, a PPRE-dependent luciferase reporter construct. After 24 h of transfection, cells were treated with different concentrations of HEX (FIG. 10A), OCT (FIG. 10B) and HMB (FIG. 10C) for 4 h followed by monitoring luciferase activity. Under similar experimental condition, MTT was performed to understand the effect of these ligands on cell viability (FIG. 10D, HEX; FIG. 10E, OCT; FIG. 10F, HMB). Results are mean±SD of three independent experiments. ^ap<0.001 vs. control. Ppara-null astrocytes were transduced with lentivirions containing empty vector (FIG. 10G), FL-Ppara (FIG. 10H), Y314D-Ppara (FIG. 10I), Y464D-Ppara (FIG. 10J), and Y314D/Y464D-Ppara (FIG. 10K) for 48 h followed by transfection with tk-PPREx3-Luc. After 24 h of transfection, cells were treated with different doses of HEX, OCT and HMB for 4 h followed by monitoring luciferase activity. PPRE luciferase activity was assayed in Ppara-null astrocytes transduced with lentivirions containing empty vector (FIG. 10L), FL-Ppara (FIG. 10M), Y314D-Ppara (FIG. 10N), Y464D-Ppara (FIG. 10O), and Y314D/Y464D-Ppara (FIG. 10P) after treatment with different doses of WY14643, fenofibrate, and clofibrate. PPRE luciferase activity was assayed in primary hippocampal neurons transduced with lentivirions containing empty vector (FIG. 10Q), FL-Ppara (FIG. 10R), Y314D-Ppara (FIG. 10S), Y464D-Ppara (FIG. 10T), and Y314D/Y464D-Ppara (FIG. 10U) after treatment with different doses of HEX, OCT and HMB. Results are mean±SD of three independent experiments. ^ap<0.001 vs. control.
Isolation of Mouse Hippocampal Neurons: Hippocampal neurons were isolated from fetuses (E18) of pregnant female Ppara-null and strain-matched WT littermate mice as described by us^6,13,35-36 with some modifications. Briefly, dissection and isolation procedures were performed in an ice-cold, sucrose buffer solution (sucrose 0.32 M, Tris 0.025 M; pH 7.4)^37. The skin and the skull were carefully removed from the brain by scissors followed by peeling off the meninges by a pair of fine tweezers. Next, a fine incision was made in the middle line around the circle of Willis and medial temporal lobe was opened up. Hippocampus was isolated as a thin slice of tissue located near the cortical edge of medial temporal lobe. Hippocampal tissues isolated from all fetal pups (n>10) were combined together and homogenized with 1 ml of trypsin for 5 minutes at 37° C. followed by neutralization of trypsin. The single cell suspension of hippocampal tissue was plated in the poly-D-lysine pre-coated 75 mm flask. Five min after plating, the supernatants were carefully removed and replaced with complete neurobasal media. The next day, 10 μM AraC was added to remove glial contamination in the neuronal culture. The pure cultures of hippocampal neurons were allowed to differentiate fully for 9-10 days before treatment^35,36,38.

Row | PPRE-luciferase activity | Structure (SMILES)
1 | completely abrogated | CCCCCCCCCCCCCCCC(N)=O [HEX, hexadecanamide]
2 | completely abrogated | CCOC(=O)C(C)(C)C(C)O (stereo not drawn) [HMB]
3 | completely abrogated | CCCCCCCCC=CCCCCCCCC(N)=O [OCT, 9-octadecenamide]

same assay, conditions: lenti-Y464D-Ppara

Row | PPRE-luciferase activity | Structure (SMILES)
4 | completely abrogated | CCCCCCCCCCCCCCCC(N)=O [HEX, hexadecanamide]
5 | completely abrogated | CCOC(=O)C(C)(C)C(C)O (stereo not drawn) [HMB]
6 | completely abrogated | CCCCCCCCC=CCCCCCCCC(N)=O [OCT, 9-octadecenamide]

system: NMDA-driven calcium influx; test: NMDA-driven calcium influx in transduced Ppara-null hippocampal neurons; assay type: cell-based, mouse; details: lenti-FL-Ppara
Method: Ppara-null hippocampal neurons were transduced with lentivirions containing GFP (vector), FL-Ppara, and Y464D-Ppara for 48 h followed by treatment with vehicle (DMSO) (FIG. 11A), OCT (FIG. 11B), HEX (FIG. 11C), HMB (FIG. 11D), and WY14643 (FIG. 11E) for 24 h. Then neurons were stained for phalloidin to measure spine density. FIG. 11F) A representative picture of dendrite with spines (Cyan color) used for counting area of spine heads. Area of spine heads (FIG. 11G) and number of spines (FIG. 11H) in 10 μm of dendrites. Results are mean±SEM of 5 neurons per group. ^ap<0.05 vs vector only; ^bp<0.05 vs FL-Ppara. AMPA-driven calcium influx was measured in OCT (red), HEX (green) and HMB (purple)-treated Ppara-null hippocampal neurons transduced with lentivirions containing FL-Ppara (FIG. 11I), Y314D-Ppara (FIG. 11J), Y464D-Ppara (FIG. 11K), and Y314D/Y464D-Ppara (FIG. 11L). All neurons were treated with 50 μM of NMDA receptor antagonist N20C to inhibit passive calcium flow through NMDA receptor. (FIG. 11M-P) Similarly NMDA-driven calcium influx was measured in the lentivius-infected Ppara-null hippocampal neurons in the presence of different endogenous ligands. In these cases, Naspm-HCl was treated to stop the passive flow of calcium currents through AMPA receptor. Results are mean of three independent experiments.

Row | Structure (SMILES) | NMDA-mediated calcium influx
7 | CCCCCCCCCCCCCCCC(N)=O [HEX, hexadecanamide] | stimulated
8 | CCOC(=O)C(C)(C)C(C)O (stereo not drawn) [HMB] | stimulated
9 | CCCCCCCCC=CCCCCCCCC(N)=O [OCT, 9-octadecenamide] | stimulated

same assay, conditions: lenti-Y314D-Ppara

Row | Structure (SMILES) | NMDA-mediated calcium influx
10 | CCCCCCCCCCCCCCCC(N)=O [HEX, hexadecanamide] | partially restore
11 | CCOC(=O)C(C)(C)C(C)O (stereo not drawn) [HMB] | partially restore
12 | CCCCCCCCC=CCCCCCCCC(N)=O [OCT, 9-octadecenamide] | partially restore

same assay, conditions: lenti-Y314D/Y464D-Ppara

Row | Structure (SMILES) | NMDA-mediated calcium influx
13 | CCCCCCCCCCCCCCCC(N)=O [HEX, hexadecanamide] | remained unable to increase
14 | CCOC(=O)C(C)(C)C(C)O (stereo not drawn) [HMB] | remained unable to increase
15 | CCCCCCCCC=CCCCCCCCC(N)=O [OCT, 9-octadecenamide] | remained unable to increase

same assay, conditions: lenti-Y464D-Ppara

Row | Structure (SMILES) | NMDA-mediated calcium influx
16 | CCCCCCCCCCCCCCCC(N)=O [HEX, hexadecanamide] | remained unable to increase
17 | CCOC(=O)C(C)(C)C(C)O (stereo not drawn) [HMB] | remained unable to increase
18 | CCCCCCCCC=CCCCCCCCC(N)=O [OCT, 9-octadecenamide] | remained unable to increase
